Test results: article PMC12040169 (PLOS Biology, 2025)

assay: in vitro; details: human, hela cells, % viability

SMILES | viability at 28.5 h, 10 µM
O=C(O)c1ccc(N2C(=O)C(=Cc3c4ccccc4cc4ccccc34)SC2=S)cc1 [CBK296101] | 85.9%
Cc1nc2cccnc2n1CCNC(=O)Cc1cccs1 [CBK283592] | 107%
CN(C)CCN(C)c1cccc(/C=C/c2ccccc2)n1 [CBK036826] | 109%
Cc1ccccc1CC(=O)N1CCCC1c1n[nH]cc1-c1ccncc1 (stereo not drawn) [CBK283431] | 87.7%
CCCc1n[nH]c(-c2cccc(C)c2C)c1C(=O)OCC [CBK113545] | 106%
Cc1cc(OC(C)C(=O)N(Cc2cccs2)C2CCS(=O)(=O)C2)cc(C)c1Cl (stereo not drawn) [CBK293962] | 84.3%
C[C@H](c1ccccc1)n1c(=O)[nH]c2ncc(-c3ccco3)nc21 [CBK064415] | 98.1%
Cn1ccnc1CN1CCNC(=O)C1c1ccccc1C(F)(F)F (stereo not drawn) [CBK306415] | 85.1%
Cc1ccc(S(=O)(=O)N2Cc3ccccc3CC2C(=O)Nc2sc3c(c2C#N)CCCC3)cc1 (stereo not drawn) [CBK266313] | 97.9%
Cc1ccc(C(=O)NC(Cc2cccs2)c2ccccn2)c(=O)[nH]1 (stereo not drawn) [CBK285210] | 89.8%
CC(NC(=O)c1cnc2n(c1=O)CCS2)c1ccccc1 (stereo not drawn) [CBK287372] | 103%
CC(=O)NCc1nnc2c3ccccc3c(-c3ccccc3)nn12 [CBK270123] | 92.3%
CC(Cn1cccn1)NC(=O)N1CCN(Cc2ccc(F)cc2)CC1 (stereo not drawn) [CBK306948] | 88.9%
CC(=O)Nc1ccc(CN2CCCC(c3cc4ncccc4[nH]3)C2)cc1 (stereo not drawn) [CBK283402] | 92.4%
Cc1ccc(CS(=O)(=O)N2CCN(CCO)C(C)C2)c(F)c1 (stereo not drawn) [CBK304702] | 105%
O=C(c1ccco1)N1CCN(c2cc(-c3ccc(OCc4ccccc4)cc3)ncn2)CC1 [CBK037844] | 97.6%
CCCC(=O)Nc1ccc(C(=O)N2CCN(C)CC2)cc1 [CBK304337] | 100%
CCc1cc(CNC(=O)C(c2ccccc2)N2CCC(C)CC2)on1 (stereo not drawn) [CBK281592] | 92.4%
COc1ccccc1CC(=O)NCc1nc(-c2cccc(C)c2)no1 [CBK269336] | 96.7%
CCCn1c(NCc2cccc(OC)c2O)nc2ccccc21 [CBK133763] | 96.4%
CC(C)(C)c1cc(C[C@H]2CNCC[C@H]2CC(=O)N2CCN(c3ccccn3)CC2)no1 [CBK288799] | 87.4%

SMILES | viability at 28.5 h, 10 µM
Cc1cccc(-c2csc3c(=O)[nH]c(N4CCC(C(=O)NCc5ccncc5)CC4)nc23)c1 [CBK215625] | 106%
O=S(=O)(/N=C(/c1ccc(Cl)cc1)N1CCOCC1)c1ccccc1 [CBK293950] | 93.5%
O=c1[nH]c(NCCCO)nc2sc3c(c12)CCCC3 [CBK025611] | 87.9%
COc1ccccc1C(=O)NC1CN2CCC1CC2 (stereo not drawn) [CBK018475C] | 75.5%
CC(=O)Nc1ccc(S(=O)(=O)N2CCN(S(=O)(=O)c3ccccc3[N+](=O)[O-])CC2)cc1 [CBK264314] | 104%
O=C(O)c1cc(S(=O)(=O)Nc2ccc(F)cc2)c(Cl)cc1Cl [CBK113685] | 84.9%
Cc1cc(=O)n2c(-c3ccc(NS(=O)(=O)c4cccnc4)cc3)csc2n1 [CBK287837] | 91.6%
CNC(=O)CCc1ccccc1NC(=O)NCc1cnc(SC)n1C [CBK307507] | 101%
COc1ccc(-n2nnnc2SCC(=O)c2ccc(O)c(O)c2)cc1 [CBK293969] | 90.3%
Nc1nc(NCc2ccccc2)nc(-c2cc(Cl)ccc2O)n1 [CBK074526] | 102%
COc1cccc(OCCCCCc2c(C)n[nH]c2C)c1 [CBK261805] | 104%
NC(=O)c1nc(-c2ccccc2)nc2c1[nH]c(=O)n2-c1cccc(Cl)c1 [CBK287544] | 104%
COc1cc2c(cc1OC)C1c3ccccc3NC(c3ccccc3F)N1CC2 (stereo not drawn) [CBK286311] | 98.9%
COc1ccc(-c2ocnc2C(=O)NCCc2ccccc2F)cc1 [CBK283941] | 90%
C[C@@H]1C(=O)O[C@H]2[C@H]1CC[C@@]1(C)Cc3sc(NC(=O)CN(C)C)nc3[C@@H](C)[C@H]21 [CBK289431] | 87.3%
COc1ccc(NC(=O)CS(=O)(=O)Cc2ccccc2)c([N+](=O)[O-])c1 [CBK266748] | 93.1%
Fc1ccc(Sc2cccc(C(F)(F)F)n2)cc1 [CBK115240] | 97.5%
O=C(NCC1(c2ccccc2Cl)CC1)c1ccc(=O)n(CC(=O)N2CCCCC2)c1 [CBK286077] | 84.8%
CC(=O)Nc1ccc(-c2cccc(COC3CCN(C(=O)Cc4cc(F)cc(F)c4F)CC3)c2)cc1 [CBK149489] | 89.2%
CCCn1ncc(CN[C@@H]2CCC[C@H]2Cc2cc(C)no2)c1C [CBK282948] | 88.7%
Nc1cccc(S(=O)(=O)N2CCC(C(=O)O)CC2)c1 [CBK286541] | 88.2%

SMILES | viability at 28.5 h, 10 µM
O=C(c1ccco1)N1CCN(c2cc(-c3ccccc3Oc3ccccc3)ncn2)CC1 [CBK037817] | 96.8%
Fc1ccc(CCN2CCC(Oc3nccnc3OCCN3CCOCC3)CC2)cc1 [CBK082937T] | 88.3%
Cc1cccc(-c2csc3c(=O)[nH]c(N4CCC5(CC4)OCCO5)nc23)c1 [CBK291142] | 102%
O=C(O)c1cc(NC(=O)c2cccc(F)c2)cc(NC(=O)c2cccc(F)c2)c1 [CBK262800] | 90.6%
CN(CCCC(=O)Nc1nnc[nH]1)S(=O)(=O)c1ccccc1 [CBK267380] | 82.4%
CCOC(=O)c1[nH]c(=O)[nH]c1CSc1ccccn1 [CBK027725] | 94%
N#Cc1ccccc1N1CCN(c2cncc(-c3ccc(F)cc3F)n2)CC1 [CBK065708] | 102%
CCn1cc(-c2cncn2C(CCN(C)C)c2ccccc2)cn1 (stereo not drawn) [CBK281741] | 79.2%
Cc1ccc(NC(=O)CSc2cnn[nH]2)cc1 [CBK270136] | 86.2%
CCOC(=O)C1(C2CCCCC2)CCN(C(=O)c2cccnc2)CC1 [CBK137104T] | 95.4%
O=C(N[C@H]1CO[C@H]2[C@@H]1OC[C@@H]2n1cc(-c2ccccc2)nn1)N1CCOCC1 [CBK289503] | 87.7%
Cn1cc(C2CCCCN2C(=O)c2cccc(C#N)c2)cn1 (stereo not drawn) [CBK304611] | 87.9%
COc1ccc(-c2nnc(SCc3cc(=O)oc4cc(C)ccc34)n2CC(C)C)cc1 [CBK297518] | 81.3%
O=C(COc1ccc(S(=O)(=O)N2CCCCC2)cc1Cl)Nc1ccc2c(c1)OCCO2 [CBK269540] | 97%
Cc1cc2c(cc3c(=O)n(CC(=O)N4CCCCC4)nc(C)n32)s1 [CBK284063] | 95.3%
Cc1cc(C)nc(NC2=NC3CCCCC3N2C(=O)Nc2ccc(Cl)c(Cl)c2)n1 (stereo not drawn) [CBK266458] | 97.5%
Cc1cc(C(=O)N2CCC(Cn3cncn3)(C3CCCCC3)CC2)n[nH]1 [CBK136786] | 99.2%
O=C(NCCN1CCOCC1)N1CCN(CCc2ccccc2)CC1 [CBK158908] | 85.5%
CSc1ccc(SC/C(N)=N/O)cc1 [CBK025411C] | 96.1%

same assay, conditions: human, hela cells, % viability, bulk resorufin, single well

SMILES | viability at 28.5 h, 10 µM
COc1ccc(N2C(=O)NC(=O)/C(=C\c3ccc(O)c(O)c3)C2=O)cc1 [CBK261436] | 92%
CC(=O)Nc1ccc(-c2ccc3c(c2)COC2(CCN(C(=O)Cc4ccc(F)cc4F)CC2)O3)cc1 [CBK122474] | 102%
